Assay results as given in patent US20100216734A1, “MODULATION OF NEUROGENESIS BY NOOTROPIC AGENTS” (BrainCells, Inc., priority 2006, published 2010).
Where “and” joins values, the source holds several entries; their conditions need not be identical. Identical values can stand only once. Entries after “also recorded” stand apart in the source; their conditions may differ. Counter-ions that a name gives are not always drawn. Like-named read-outs stand apart in the source and are kept apart here. Peptide text beside a SMILES is read from it. * marks the point of attachment. PhAc = O=C(Cc1ccccc1)*

Legend:
mGluR2 = mGluR2 (Homo sapiens, UniProt Q14416); conditions: read-out: IC50 against mGluR2; cited from earlier work
Sequence of mGluR2 (Q14416 19-872): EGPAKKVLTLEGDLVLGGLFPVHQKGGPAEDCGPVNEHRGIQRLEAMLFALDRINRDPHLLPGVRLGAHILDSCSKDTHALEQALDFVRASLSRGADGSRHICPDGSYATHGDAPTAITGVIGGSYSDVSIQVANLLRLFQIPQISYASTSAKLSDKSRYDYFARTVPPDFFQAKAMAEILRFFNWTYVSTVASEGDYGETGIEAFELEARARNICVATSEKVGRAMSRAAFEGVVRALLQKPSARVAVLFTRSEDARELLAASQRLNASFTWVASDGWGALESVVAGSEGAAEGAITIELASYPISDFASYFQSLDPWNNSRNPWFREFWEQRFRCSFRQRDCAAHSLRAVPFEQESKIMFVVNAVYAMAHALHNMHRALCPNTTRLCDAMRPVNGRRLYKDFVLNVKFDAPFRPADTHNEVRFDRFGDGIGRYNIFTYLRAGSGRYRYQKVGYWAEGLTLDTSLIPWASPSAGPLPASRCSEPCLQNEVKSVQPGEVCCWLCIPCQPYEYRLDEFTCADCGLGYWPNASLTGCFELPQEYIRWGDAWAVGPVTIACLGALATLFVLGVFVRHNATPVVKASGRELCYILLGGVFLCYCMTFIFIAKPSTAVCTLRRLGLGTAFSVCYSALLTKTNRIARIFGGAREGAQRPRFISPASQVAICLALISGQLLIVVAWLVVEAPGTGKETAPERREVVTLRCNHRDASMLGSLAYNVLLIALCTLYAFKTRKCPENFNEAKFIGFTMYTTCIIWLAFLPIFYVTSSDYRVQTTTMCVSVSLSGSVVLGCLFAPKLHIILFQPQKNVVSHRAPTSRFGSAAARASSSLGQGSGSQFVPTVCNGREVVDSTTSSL

mGluR3 = mGluR3 (Homo sapiens, UniProt Q14832); conditions: read-out: IC50 against mGluR3; cited from earlier work
Sequence of mGluR3 (Q14832 23-879): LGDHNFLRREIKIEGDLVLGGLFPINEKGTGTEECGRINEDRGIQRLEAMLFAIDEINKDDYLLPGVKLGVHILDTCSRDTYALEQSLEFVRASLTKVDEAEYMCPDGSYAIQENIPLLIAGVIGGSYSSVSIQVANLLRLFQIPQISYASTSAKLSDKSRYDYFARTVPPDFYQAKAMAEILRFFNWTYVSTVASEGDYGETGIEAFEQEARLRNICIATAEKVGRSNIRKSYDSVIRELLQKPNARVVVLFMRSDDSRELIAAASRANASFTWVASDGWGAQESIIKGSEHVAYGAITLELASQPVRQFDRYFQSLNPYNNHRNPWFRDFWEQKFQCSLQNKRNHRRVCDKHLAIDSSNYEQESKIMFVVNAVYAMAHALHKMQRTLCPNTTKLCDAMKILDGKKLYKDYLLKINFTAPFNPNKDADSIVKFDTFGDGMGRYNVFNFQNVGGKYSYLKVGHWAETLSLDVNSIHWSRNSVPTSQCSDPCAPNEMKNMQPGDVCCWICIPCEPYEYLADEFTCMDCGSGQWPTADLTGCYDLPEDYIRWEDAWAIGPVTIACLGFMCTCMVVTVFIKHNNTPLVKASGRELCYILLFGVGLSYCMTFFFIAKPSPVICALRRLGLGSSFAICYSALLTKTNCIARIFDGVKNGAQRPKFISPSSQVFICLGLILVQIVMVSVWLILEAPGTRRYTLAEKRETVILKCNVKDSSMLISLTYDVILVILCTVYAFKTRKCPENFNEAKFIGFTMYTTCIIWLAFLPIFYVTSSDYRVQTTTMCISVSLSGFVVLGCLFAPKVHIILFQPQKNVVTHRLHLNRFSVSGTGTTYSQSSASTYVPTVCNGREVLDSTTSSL

[1] = tested on: Group I or Group III receptors; conditions: at sub-mM concentrations; cited from earlier work
[2] = tested on: human neural stem cells (hNSCs); test: Neuronal differentiation of human neural stem cells (TUJ-1 staining); type: cell-based; conditions: for effect on neuronal differentiation, agent alone (in words): dose response of agent alone; for maximal percent neuronal differentiation in the presence of 1.0 μM NBQX: with 1.0 μM NBQX
[3] = tested on: KA, AMPA, and NMDA iGlu receptors; conditions: cited from earlier work
human mGlu2 receptors = human mGlu2 receptors (Homo sapiens, UniProt Q14416); conditions: in vitro; low nanomolar range; read-out: EC50 against human mGlu2 receptors; cited from earlier work
Sequence of human mGlu2 receptors (Q14416 19-872): as the sequence (Q14416 19-872) above

human mGlu3 receptors = human mGlu3 receptors (Homo sapiens, UniProt Q14832); conditions: in vitro; low nanomolar range; read-out: EC50 against human mGlu3 receptors; cited from earlier work
Sequence of human mGlu3 receptors (Q14832 23-879): as the sequence (Q14832 23-879) above

male F344 rats = test: Novel object recognition in rat; type: in vivo; conditions: 0.5 mg/kg/day i.p. once daily for 7 days, p<0.05
Protocol: SGS-111 (0.5 mg/kg/day, i.p.) was administered to male F344 rats (n=12) once daily for 7 days. Animals were tested after 7 days of drug administration.
Shown in FIG. 9 is the mean number of visits to the novel object for vehicle and SGS-111 treated rats (±SEM). The y-axis represents mean visits. The x-axis indicates treatment. […] This difference is indicative of cognitive enhancement, an in vivo behavioral consequence of enhanced neurogenesis by SGS-111.

[4] = hNSCs, % of neuronal positive control
[5] = hNSCs, agent run independently, % of neuronal positive control, basal media subtracted, read-out: EC50 for neuronal differentiation, agent alone
[6] = hNSCs, test agent dose response with constant 0.316 μM AMPA, read-out: EC50 for neuronal differentiation in combination with 0.316 μM AMPA
[7] = Homo sapiens, Neural stem cell, hNSCs, agent run independently, % of neuronal positive control, basal media subtracted, read-out: EC50 for neuronal differentiation, agent alone

NC1(C(=O)O)CCc2cc(P(=O)(O)O)ccc21 (racemic) [APICA, (RS)-1-amino-5-phosphonoindan-1-carboxylic acid]
IC50 (mGluR2): ~30 µM
IC50 (mGluR3): ~30 µM
activity against Group I or Group III receptors (in words) [1]: no appreciable activity

Cc1onc(O)c1CC(N)C(=O)O (stereo not drawn) [AMPA, alpha-amino-3-hydroxy-5-methyl-4-isoxazolepropionic acid]
EC50 ([2]; Homo sapiens, Neural stem cell, read-out: EC50 for neuronal differentiation in the presence of 1.0 μM NBQX, hNSCs, with 1.0 μM AMPA antagonist NBQX): > 32 µM
Emax ([2]; Homo sapiens, Neural stem cell, read-out: maximum percent neuronal differentiation (maximum efficacy), agent alone): 50%
effect of AMPA at 0.316 μM alone on neuronal differentiation (in words) ([2]; hNSCs, AMPA 0.316 μM): failed to stimulate neuronal differentiation; also recorded: no effects on neuronal differentiation
effect on neuronal differentiation, agent alone (in words) ([2]; hNSCs): promoted neuronal differentiation
maximal percent neuronal differentiation in the presence of 1.0 μM NBQX [2, 4]: 7%

CC(=O)N1CCN(NC(=O)c2ccc(F)cc2)CC1 [FK-960]
EC50 [2, 5]: 7 µM
effect on neuronal differentiation, agent alone (in words) ([2]; hNSCs): promoted neuronal differentiation

N[C@](CC1c2ccccc2Oc2ccccc21)(C(=O)O)[C@H]1C[C@@H]1C(=O)O [LY341495, (2S)-2-amino-2-(1S,2S-2-carboxycycloprop-1-yl)-3-(xanth-9-yl) propanoic acid]
activity against KA, AMPA, and NMDA iGlu receptors (in words) [3]: substantially inactive

N[C@@]1(C(=O)O)CO[C@H]2[C@H](C(=O)O)[C@H]21 [LY379268, (−)-2-oxa-4-aminobicyclohexane-4,6-dicarboxylic acid]
EC50 (human mGlu2 receptors): < 0.01 µM
EC50 (human mGlu3 receptors): < 0.01 µM

NC(=O)COc1c(F)cc(SCCNS(=O)(=O)c2ccccc2)cc1F [PEPA]
effect on neuronal differentiation in the presence of 0.316 μM AMPA (in words) ([2]; hNSCs, constant 0.316 μM AMPA): stimulation of neuronal differentiation that was dose-dependent upon PEPA
effect on neuronal differentiation, agent alone (in words) ([2]; hNSCs): No effect on neuronal differentiation; also recorded: did not significantly enhance neuronal differentiation
EC50 [2, 6]: 0.69 µM

NC(=O)CN1CCCC1=O [Piracetam]
EC50 ([2]; Homo sapiens, Neural stem cell, hNSCs, with 1.0 μM AMPA antagonist NBQX, read-out: EC50 for neuronal differentiation in the presence of 1.0 μM NBQX): > 32 µM
Emax ([2]; Homo sapiens, Neural stem cell, hNSCs, % of neuronal positive control, read-out: maximum percent neuronal differentiation (maximum efficacy), agent alone): 60%
effect on neuronal differentiation, agent alone (in words) ([2]; hNSCs): promoted neuronal differentiation
maximal percent neuronal differentiation in the presence of 1.0 μM NBQX [2, 4]: 38%

CCOC(=O)CNC(=O)[C@@H]1CCCN1C(=O)Cc1ccccc1 [SGS-111] (PhAc-Pro-Gly-OEt)
maximum percent neuronal differentiation (maximum efficacy), agent alone [2, 4]: ~40%
maximum percent neuronal differentiation (maximum efficacy) in combination with 0.316 μM AMPA ([2]; hNSCs, % of neuronal positive control, constant 0.316 μM AMPA): approximately 60%
EC50 [2, 5]: 7.2 µM
effect on neuronal differentiation in the presence of 0.316 μM AMPA (in words) ([2]; hNSCs, constant 0.316 μM AMPA): a greater number of neurons at the highest concentration tested
EC50 [2, 6]: 4.2 µM
number of visits to / preference for the novel object versus familiar object (male F344 rats): statistically significant increase

CC(=O)NCCCS(=O)(=O)O [acamprosate]
EC50 [2, 7]: 16.4 µM
EC50 [2, 5]: 9.68 µM

CCCCN(CC)c1nc(C)nc2c1c(C)c(C)n2-c1c(C)cc(C)cc1C [antalarmin]
EC50 [2, 7]: 4.68 µM

O=C1CC2(CCCC2)CC(=O)N1CCCCN1CCN(c2ncccn2)CC1 [buspirone]
EC50 [2, 7]: 7.43 µM

O=C1CC[C@H](C(=O)N2CCCCC2)N1 [fasoracetam]
EC50 [2, 7]: 3.13 µM

COc1ccc2[nH]cc(CCNC(C)=O)c2c1 [melatonin]
EC50 [2, 7]: 320 µM

COC(=O)C(c1ccccc1)C1CCCCN1 (stereo not shown) [methylphenidate HCl, methylphenidate hydrochloride]
EC50 ([2]; Homo sapiens, Neural stem cell, read-out: EC50 for neuronal differentiation, agent alone, hNSCs, agent run independently, % of neuronal positive control, basal media subtracted): 1.29 µM

NCC1CC(=O)N(Cc2ccccc2)C1 (stereo not shown) [nebracetam]
Emax ([2]; Homo sapiens, Neural stem cell, hNSCs, % of neuronal positive control, constant 0.316 μM AMPA, read-out: maximum percent neuronal differentiation (maximum efficacy) in combination with 0.316 μM AMPA): 63%
effect on neuronal differentiation in the presence of 0.316 μM AMPA (in words) ([2]; hNSCs, constant 0.316 μM AMPA): promoted dose dependent neuronal differentiation
effect on neuronal differentiation, agent alone (in words) ([2]; hNSCs): failed to stimulate neuronal differentiation; also recorded: no effect on neuronal differentiation
EC50 [2, 6]: 0.28 µM and 0.97 µM

NC(=O)c1ncn([C@@H]2O[C@H](CO)[C@@H](O)[C@H]2O)n1 [ribavirin]
EC50 [2, 7]: 5.14 µM

CCCc1nc2c(C)cc(-c3nc4ccccc4n3C)cc2n1Cc1ccc(-c2ccccc2C(=O)O)cc1 [telmisartan]
EC50 [2, 7]: 2.75 µM

COC(=O)[C@@H]1[C@H]2C[C@H]3c4[nH]c5ccccc5c4CCN3C[C@@H]2CC[C@@H]1O [yohimbine]
EC50 [2, 7]: 0.62 µM
